Tests used:
Format in all cases: biochemical
[1] = molecular target: T1, human JAK3 (aa 795-1124) catalytic domain (Homo sapiens, UniProt P52333); experiment: In vitro JAK kinase assay (TR-FRET), JAK3; details: GST-fusion catalytic domain; ATP 0.6 μM; poly (GT)-Biotin 140 nM; 30 minutes at room temperature
T1 construct: JAK3 (aa 795-1124); GST (N); purchased Carna Biosciences; host or cells: baculovirus expression system
Method: (§1) Compounds were screened for their ability to inhibit JAK1, JAK2 and JAK3 using the assays as indicated below.
(§2) The catalytic domains of human JAK1 (aa 850-1154), JAK2 (aa 826-1132), JAK3 (aa 795-1124) and Tyk2 (aa 871-1187) were expressed as N-terminal GST-fusion proteins using a baculovirus expression system and were purchased from Carna Biosciences. The enzymatic activity was assayed using as substrate a biotinylated peptide, poly (GT)-Biotin (CisBio). The peptide concentration in the reactions was 60 nM for JAK1, 20 nM for JAK2, 140 nM for JAK3 and 50 nM for Tyk2. The degree of phosphorylation was detected by TR-FRET (time-resolved fluorescence energy transfer).
(§3) IC50s of compounds were measured for each kinase in a reaction mixture containing the enzyme, ATP and the peptide in 8 mM MOPS (pH 7.0), 10 mM MgCl2, 0.05% β-mercaptoethanol, 0.45 mg/mL BSA. The ATP concentration in the reactions was 3 μM for JAK1, 0.2 μM for JAK2, 0.6 μM for JAK3 and 1.8 μM for Tyk2. The enzymatic reactions took place for 30 minutes at room temperature. Then, the reactions were stopped with 20 μL of quench detection buffer (50 mM HEPES, 0.5 M KF, EDTA 0.25 M, 0.1% (w/v) BSA, pH 7.5) containing 0.115 μg/mL of anti-phosphoTyr (PT66)-Cryptate (CisBio) and a variable concentration of SA-XL665 (CisBio) to keep the SA-B ratio constant. Incubate for 3 h and read on Victor 2V spectrofluorometer (PerkinElmer) set to read fluorescence resonance energy transfer.

[2] = molecular target: T2, human JAK2 (aa 826-1132) catalytic domain (Homo sapiens, UniProt O60674); experiment: In vitro JAK kinase assay (TR-FRET), JAK2; details: GST-fusion catalytic domain; ATP 0.2 μM; poly (GT)-Biotin 20 nM; 30 minutes at room temperature
T2 construct: JAK2 (aa 826-1132); GST (N); purchased Carna Biosciences; host or cells: baculovirus expression system
T2 sequence (O60674 826-1132): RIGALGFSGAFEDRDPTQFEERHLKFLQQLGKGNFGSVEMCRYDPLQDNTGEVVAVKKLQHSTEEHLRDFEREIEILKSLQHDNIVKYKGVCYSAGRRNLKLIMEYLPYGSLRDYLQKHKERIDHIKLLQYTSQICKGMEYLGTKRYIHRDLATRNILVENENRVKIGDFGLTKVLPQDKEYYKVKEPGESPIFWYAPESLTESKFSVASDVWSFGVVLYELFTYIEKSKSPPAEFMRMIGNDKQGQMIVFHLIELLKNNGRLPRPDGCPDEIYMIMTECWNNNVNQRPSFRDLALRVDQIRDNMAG
Method: as §1, §2, §3

[3] = molecular target: T3, human JAK1 (aa 850-1154) catalytic domain (Homo sapiens, UniProt P23458); experiment: In vitro JAK kinase assay (TR-FRET), JAK1; details: GST-fusion catalytic domain; ATP 3 μM; poly (GT)-Biotin 60 nM; 30 minutes at room temperature
T3 construct: human JAK1 (aa 850-1154); GST (N); purchased Carna Biosciences; host or cells: baculovirus expression system
T3 sequence (P23458 850-1154): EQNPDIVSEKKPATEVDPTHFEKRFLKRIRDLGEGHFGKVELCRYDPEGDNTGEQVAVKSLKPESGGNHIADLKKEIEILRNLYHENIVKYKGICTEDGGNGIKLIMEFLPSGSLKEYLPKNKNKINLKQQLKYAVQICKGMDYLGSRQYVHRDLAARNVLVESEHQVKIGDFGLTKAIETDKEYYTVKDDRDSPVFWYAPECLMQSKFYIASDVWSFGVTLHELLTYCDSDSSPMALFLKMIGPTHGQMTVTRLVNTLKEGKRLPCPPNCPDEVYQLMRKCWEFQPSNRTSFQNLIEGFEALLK
Method: as §1, §2, §3

T1 sequence (P52333 795-1124): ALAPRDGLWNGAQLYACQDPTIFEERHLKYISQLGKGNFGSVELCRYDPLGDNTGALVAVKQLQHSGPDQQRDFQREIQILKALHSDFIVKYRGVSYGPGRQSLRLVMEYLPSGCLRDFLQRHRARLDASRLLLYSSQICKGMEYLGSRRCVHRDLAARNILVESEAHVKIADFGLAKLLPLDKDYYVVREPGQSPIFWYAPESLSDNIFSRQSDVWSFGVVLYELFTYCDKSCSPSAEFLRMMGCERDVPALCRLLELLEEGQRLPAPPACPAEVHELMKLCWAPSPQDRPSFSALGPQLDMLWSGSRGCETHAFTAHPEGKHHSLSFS

| Structure (SMILES) | IC50 [1] | IC50 [2] | IC50 [3] |
| --- | --- | --- | --- |
| C[C@H](Nc1ccnc(-c2cnc3ccc(C#N)cn23)n1)c1ccccc1 [Example 1, 3-(4-{[(1S)-1-Phenylethyl]amino}pyrimidin-2-yl)imidazo[1,2-a]pyridine-6-carbonitrile] | < 100 nM | < 100 nM | 100 to 1000 nM |
| COCCNc1ccnc(-c2cnc3ccc(C#N)cn23)n1 [Example 6, 3-{4[(2-Methoxyethyl)amino]pyrimidin-2-yl}imidazo[1,2-a]pyridine-6-carbonitrile] | 100 to 1000 nM | 100 to 1000 nM | > 1000 nM |
| CC(C)(C)CNc1nc(-c2cnc3ccc(C#N)cn23)ncc1N1CCNCC1 [Example 10, 3-{4-[(2,2-Dimethylpropyl)amino]-5-piperazin-1-ylpyrimidin-2-yl}imidazo[1,2-a]pyridine-6-carbonitrile] | 100 to 1000 nM | < 100 nM | > 1000 nM |
| CC(C)(C)CNc1nc(-c2cnc3ccc(C#N)cn23)ncc1-c1cccnc1 [Example 13, 3-{4-[(2,2-Dimethylpropyl)amino]-5-pyridin-3-ylpyrimidin-2-yl}imidazo[1,2-a]pyridine-6-carbonitrile] | 100 to 1000 nM | 100 to 1000 nM | > 1000 nM |
| N#Cc1ccc2ncc(-c3nccc(NC4CCCCC4)n3)n2c1 [Example 21, 3-[4-(Cyclohexylamino)pyrimidin-2-yl]imidazo[1,2-a]pyridine-6-carbonitrile] | < 100 nM | < 100 nM | 100 to 1000 nM |
| N#Cc1ccc2ncc(-c3nccc(N[C@H]4CC[C@H](O)CC4)n3)n2c1 [Example 22, 3-{4-[(Trans-4-hydroxycyclohexyl)amino]pyrimidin-2-yl}imidazo[1,2-a]pyridine-6-carbonitrile] | < 100 nM | < 100 nM | > 1000 nM |
| CC(C)(C)CNc1nc(-c2cnc3ccc(C#N)cn23)nc2ccccc12 [Example 25] | 100 to 1000 nM | 100 to 1000 nM | 100 to 1000 nM |
| CC(C)(C)CNc1ccnc(-c2cnc3ccccn23)n1 [Example 31, N-(2,2-Dimethylpropyl)-2-imidazo[1,2-a]pyridin-3-ylpyrimidin-4-amine] | 100 to 1000 nM | < 100 nM | 100 to 1000 nM |
| C[C@H](Nc1cncc(-c2cnc3ccc(C4CC4)cn23)n1)c1ccccc1 [Example 38, 6-(6-Cyclopropylimidazo[1,2-a]pyridin-3-yl)-N-[(1S)-1-phenylethyl]pyrazin-2-amine] | 100 to 1000 nM | < 100 nM | > 1000 nM |
| C[C@H](Nc1cncc(-c2cnc3ccc(-c4ccccc4)cn23)n1)c1ccccc1 [Example 42, N-[(1S)-1-Phenylethyl]-6-(6-phenylimidazo[1,2-a]pyridin-3-yl)pyrazin-2-amine] | > 1000 nM | 100 to 1000 nM | > 1000 nM |
| CC(C)S(=O)(=O)N1CCC[C@@H](Nc2ccnc(-c3cnc4ccc(C#N)cn34)n2)C1 [Example 45, 3-(4-{[(3R)-1-(Isopropylsulfonyl)piperidin-3-yl]amino}pyrimidin-2-yl)imidazo[1,2-a]pyridine-6-carbonitrile] | 100 to 1000 nM | 100 to 1000 nM | > 1000 nM |
| N#Cc1ccc(N2CCC[C@@H](Nc3ccnc(-c4cnc5ccc(C#N)cn45)n3)C2)nc1 [Example 57, 3-(4-{[(3R)-1-(5-Cyanopyridin-2-yl)piperidin-3-yl]amino}pyrimidin-2-yl)imidazo[1,2-a]pyridine-6-carbonitrile] | < 100 nM | < 100 nM | > 1000 nM |
| N#CCC(=O)N1CCC[C@@H](Nc2ccnc(-c3cnc4ccc(F)cn34)n2)C1 [Example 64, 3-((3R)-3-{[2-(6-Fluoroimidazo[1,2-a]pyridin-3-yl)pyrimidin-4-yl]amino}piperidin-1-yl)-3-oxopropanenitrile] | < 100 nM | < 100 nM | < 100 nM |
| O=C(c1cn[nH]c1)N1CCC[C@@H](Nc2ccnc(-c3cnc4ccc(F)cn34)n2)C1 [Example 67, 2-(6-Fluoroimidazo[1,2-a]pyridin-3-yl)-N-[(3R)-1-(1H-pyrazol-4ylcarbonyl)piperidin-3-yl]pyrimidin-4-amine] | 100 to 1000 nM | < 100 nM | 100 to 1000 nM |
| CN(CC#N)C(=O)N1CCC[C@@H](Nc2ccnc(-c3cnc4ccc(F)cn34)n2)C1 [Example 68, (3R)—N-(Cyanomethyl)-3-{[2-(6-fluoroimidazo[1,2-a]pyridin-3-yl)pyrimidin-4-yl]amino}-N-methylpiperidine-1-carboxamide] | < 100 nM | < 100 nM | 100 to 1000 nM |
| O=C(CC(F)(F)F)N1CCC[C@@H](N(CC2CC2)c2ccnc(-c3cnc4ccc(F)cn34)n2)C1 [Example 76, N-(Cyclopropylmethyl)-2-(6-fluoroimidazo[1,2-a]pyridin-3-yl)-N-[(3R)-1-(3,3,3-trifluoropropanoyl)piperidin-3-yl]pyrimidin-4-amine] | 100 to 1000 nM | < 100 nM | > 1000 nM |
| Cc1cnc(-c2cnc3ccc(F)cn23)nc1N[C@@H]1CCCN(C(=O)CC(F)(F)F)C1 [Example 80, 2-(6-Fluoroimidazo[1,2-a]pyridin-3-yl)-5-methyl-N-[(3R)-1-(3,3,3-trifluoropropanoyl)piperidin-3-yl]pyrimidin-4-amine] | < 100 nM | < 100 nM | < 100 nM |
| N#CCC(=O)N1CCCN(c2ccnc(-c3cnc4ccc(C#N)cn34)n2)CC1 [Example 82, 3-{4-[4-(Cyanoacetyl)-1,4-diazepan-1-yl]pyrimidin-2-yl}imidazo[1,2-a]pyridine-6-carbonitrile] | > 1000 nM | 100 to 1000 nM | > 1000 nM |
| CCCN1CC[C@@H](Nc2ccnc(-c3cnc4ccc(F)cn34)n2)C1=O [Example 89, (R)-3-(2-(6-Fluoroimidazo[1,2-a]pyridin-3-yl)pyrimidin-4-ylamino)-1-propyl pyrrolidin-2-one] | > 1000 nM | 100 to 1000 nM | > 1000 nM |
| Fc1ccc2ncc(-c3nccc(N4CCCC4c4ccccn4)n3)n2c1 (stereo not drawn) [Example 90, 6-Fluoro-3-(4-(2-(pyridin-2-yl)pyrrolidin-1-yl)pyrimidin-2-yl)imidazo[1,2-a]pyridine] | < 100 nM | < 100 nM | > 1000 nM |
| CCN(CC)C(=O)[C@H]1CCCN1c1ccnc(-c2cnc3ccc(F)cn23)n1 [Example 92, (R)—N,N-Diethyl-1-(2-(6-fluoroimidazo[1,2-a]pyridin-3-yl)pyrimidin-4-yl)pyrrolidine-2-carboxamide] | > 1000 nM | < 100 nM | 100 to 1000 nM |
| O=C(C1CC1(F)F)N1CCC[C@@H](Nc2ccnc(-c3cnc4ccc(F)cn34)n2)C1 (stereo partly drawn) [Example 102, (2,2-Difluorocyclopropyl)((R)-3-(2-(6-fluoroimidazo[1,2-a]pyridin-3-yl)pyrimidin-4-ylamino)piperidin-1-yl)methanone] | 100 to 1000 nM | < 100 nM | > 1000 nM |
| O=C(Cc1ccc(CO)cc1)N1CCC[C@@H](Nc2ccnc(-c3cnc4ccc(F)cn34)n2)C1 [Example 107, (R)-1-(3-(2-(6-Fluoroimidazo[1,2-a]pyridin-3-yl)pyrimidin-4-ylamino)piperidin-1-yl)-2-(4-(hydroxymethyl)phenyl)ethanone] | > 1000 nM | < 100 nM | > 1000 nM |
| N#Cc1cnc(N2CCC[C@@H](Nc3ccnc(-c4cnc5ccc(F)cn45)n3)C2)s1 [Example 131, (R)-2-(3-(2-(6-Fluoroimidazo[1,2-a]pyridin-3-yl)pyrimidin-4-ylamino)piperidin-1-yl)thiazole-5-carbonitrile] | < 100 nM | < 100 nM | < 100 nM |
| Cc1cnc(-c2cnc3ccc(F)cn23)nc1N[C@@H]1CCN(C(=O)CC#N)C1 [Example 134, (R)-3-(3-(2-(6-Fluoroimidazo[1,2-a]pyridin-3-yl)-5-methylpyrimidin-4-ylamino)pyrrolidin-1-yl)-3-oxopropanenitrile] | 100 to 1000 nM | < 100 nM | 100 to 1000 nM |
| Nc1cnc(-c2cnc3ccc(F)cn23)nc1NCc1ccc(F)cn1 [Example 136] | < 100 nM | < 100 nM | < 100 nM |
| Nc1cnc(-c2cnc3ccc(F)cn23)nc1NC1CCCc2ncccc21 (stereo not drawn) [Example 137, 2-(6-Fluoroimidazo[1,2-a]pyridin-3-yl)-N^4-(5,6,7,8-tetrahydroquinolin-5-yl)pyrimidine-4,5-diamine] | 100 to 1000 nM | < 100 nM | > 1000 nM |

Source: patent publication US20130216498A1, “IMIDAZOPYRIDINE DERIVATIVES AS JAK INHIBITORS” (priority 2009, published 2013)
